The values that follow come from patent US20210070748A1, “INHIBITORS OF BRUTONS TYROSINE KINASE” (Pharmacyclics LLC, priority 2015, published 2021).

Some results are limits rather than exact numbers.

Assay type in all cases: biochemical
One experiment has as its target EGFR (Homo sapiens, UniProt P00533). Description: Inhibition of a panel of kinases, in vitro HotSpot kinase assay: EGFR. To be noted: D-compounds panel data; 1 μM ATP. Here is the method: (§1) The degree of inhibition of a panel of kinases is determined using the in vitro HotSpot kinase assay (purified enzymes, ^33P-ATP, an appropriate substrate and 1 μM ATP).
The target of another experiment is T1, BTK-WT (Homo sapiens, UniProt Q06187).
T1 construct: purified from insect cells as a full-length construct containing an N-terminal 6X-His tag; His6 (N); made in house; host or cells: insect cells (baculovirus Sf21 in Method B)
Description: Btk in vitro inhibitory activity (one of Method A TR-FRET, Method B electrophoretic mobility shift, Method C radiometric filter binding). To be noted: D-compounds panel data; read-out: IC50 BTK-WT. For orientation: A gel shift assay detects complexes by their altered migration in electrophoresis.

In the next experiment the target is LCK (Homo sapiens, UniProt P06239). Description: Inhibition of a panel of kinases, in vitro HotSpot kinase assay: LCK. To be noted: D-compounds panel data; 1 μM ATP; read-out: IC50 LCK.
In a further experiment the target is T2, ITK (Homo sapiens, UniProt Q08881).
T2 sequence (Q08881 1-620): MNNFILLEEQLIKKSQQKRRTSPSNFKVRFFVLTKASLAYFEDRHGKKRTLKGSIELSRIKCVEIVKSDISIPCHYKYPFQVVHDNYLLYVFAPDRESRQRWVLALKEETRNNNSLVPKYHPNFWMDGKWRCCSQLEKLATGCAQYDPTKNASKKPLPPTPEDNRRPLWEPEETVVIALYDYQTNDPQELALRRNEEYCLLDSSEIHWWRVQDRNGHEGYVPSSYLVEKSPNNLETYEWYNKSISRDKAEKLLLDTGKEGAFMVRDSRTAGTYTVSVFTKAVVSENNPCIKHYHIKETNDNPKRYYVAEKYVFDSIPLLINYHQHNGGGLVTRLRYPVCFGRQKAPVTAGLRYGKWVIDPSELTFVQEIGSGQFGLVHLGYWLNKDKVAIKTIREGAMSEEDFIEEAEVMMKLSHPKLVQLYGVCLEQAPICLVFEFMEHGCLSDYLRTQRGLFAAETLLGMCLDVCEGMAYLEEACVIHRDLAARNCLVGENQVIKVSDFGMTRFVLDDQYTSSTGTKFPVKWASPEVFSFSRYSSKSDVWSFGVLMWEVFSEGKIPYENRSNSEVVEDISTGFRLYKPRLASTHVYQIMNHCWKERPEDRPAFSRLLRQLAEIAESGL
Put plainly: Inhibition of a panel of kinases, in vitro HotSpot kinase assay: ITK. To be noted: D-compounds panel data; 1 μM ATP. How it is done: as §1

Sequence of LCK (P06239 whole entry): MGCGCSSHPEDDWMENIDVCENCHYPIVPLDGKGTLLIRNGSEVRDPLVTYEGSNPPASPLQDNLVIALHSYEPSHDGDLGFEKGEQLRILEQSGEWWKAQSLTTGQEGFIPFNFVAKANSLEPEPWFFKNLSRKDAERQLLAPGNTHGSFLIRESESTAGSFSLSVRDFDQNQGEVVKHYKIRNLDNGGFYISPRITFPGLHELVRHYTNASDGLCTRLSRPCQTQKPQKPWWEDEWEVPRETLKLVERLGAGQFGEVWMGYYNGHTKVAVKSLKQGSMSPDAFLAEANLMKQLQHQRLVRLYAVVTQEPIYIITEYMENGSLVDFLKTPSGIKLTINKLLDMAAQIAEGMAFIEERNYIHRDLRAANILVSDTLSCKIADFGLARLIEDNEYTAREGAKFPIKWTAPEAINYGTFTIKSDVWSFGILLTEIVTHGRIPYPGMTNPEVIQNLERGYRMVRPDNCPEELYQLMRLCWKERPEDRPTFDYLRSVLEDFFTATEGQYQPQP
T1 sequence (Q06187 whole entry): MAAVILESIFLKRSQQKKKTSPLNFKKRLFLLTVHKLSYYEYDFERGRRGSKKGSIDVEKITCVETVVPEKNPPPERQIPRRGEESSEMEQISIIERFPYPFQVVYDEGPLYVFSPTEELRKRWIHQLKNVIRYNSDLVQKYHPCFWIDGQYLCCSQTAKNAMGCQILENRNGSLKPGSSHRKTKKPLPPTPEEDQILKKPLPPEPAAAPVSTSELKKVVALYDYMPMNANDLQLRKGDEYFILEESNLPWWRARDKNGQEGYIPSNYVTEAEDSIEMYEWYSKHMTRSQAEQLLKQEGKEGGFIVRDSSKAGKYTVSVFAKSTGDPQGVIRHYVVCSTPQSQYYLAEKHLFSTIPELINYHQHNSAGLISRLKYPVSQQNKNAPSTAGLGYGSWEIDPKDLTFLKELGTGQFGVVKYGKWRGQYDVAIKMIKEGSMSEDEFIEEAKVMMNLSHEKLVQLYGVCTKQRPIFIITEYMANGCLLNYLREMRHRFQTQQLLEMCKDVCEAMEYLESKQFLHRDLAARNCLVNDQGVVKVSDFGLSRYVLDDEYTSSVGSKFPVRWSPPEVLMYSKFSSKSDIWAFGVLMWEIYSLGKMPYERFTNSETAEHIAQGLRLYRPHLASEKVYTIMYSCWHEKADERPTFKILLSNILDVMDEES
Sequence of EGFR (P00533 25-1210): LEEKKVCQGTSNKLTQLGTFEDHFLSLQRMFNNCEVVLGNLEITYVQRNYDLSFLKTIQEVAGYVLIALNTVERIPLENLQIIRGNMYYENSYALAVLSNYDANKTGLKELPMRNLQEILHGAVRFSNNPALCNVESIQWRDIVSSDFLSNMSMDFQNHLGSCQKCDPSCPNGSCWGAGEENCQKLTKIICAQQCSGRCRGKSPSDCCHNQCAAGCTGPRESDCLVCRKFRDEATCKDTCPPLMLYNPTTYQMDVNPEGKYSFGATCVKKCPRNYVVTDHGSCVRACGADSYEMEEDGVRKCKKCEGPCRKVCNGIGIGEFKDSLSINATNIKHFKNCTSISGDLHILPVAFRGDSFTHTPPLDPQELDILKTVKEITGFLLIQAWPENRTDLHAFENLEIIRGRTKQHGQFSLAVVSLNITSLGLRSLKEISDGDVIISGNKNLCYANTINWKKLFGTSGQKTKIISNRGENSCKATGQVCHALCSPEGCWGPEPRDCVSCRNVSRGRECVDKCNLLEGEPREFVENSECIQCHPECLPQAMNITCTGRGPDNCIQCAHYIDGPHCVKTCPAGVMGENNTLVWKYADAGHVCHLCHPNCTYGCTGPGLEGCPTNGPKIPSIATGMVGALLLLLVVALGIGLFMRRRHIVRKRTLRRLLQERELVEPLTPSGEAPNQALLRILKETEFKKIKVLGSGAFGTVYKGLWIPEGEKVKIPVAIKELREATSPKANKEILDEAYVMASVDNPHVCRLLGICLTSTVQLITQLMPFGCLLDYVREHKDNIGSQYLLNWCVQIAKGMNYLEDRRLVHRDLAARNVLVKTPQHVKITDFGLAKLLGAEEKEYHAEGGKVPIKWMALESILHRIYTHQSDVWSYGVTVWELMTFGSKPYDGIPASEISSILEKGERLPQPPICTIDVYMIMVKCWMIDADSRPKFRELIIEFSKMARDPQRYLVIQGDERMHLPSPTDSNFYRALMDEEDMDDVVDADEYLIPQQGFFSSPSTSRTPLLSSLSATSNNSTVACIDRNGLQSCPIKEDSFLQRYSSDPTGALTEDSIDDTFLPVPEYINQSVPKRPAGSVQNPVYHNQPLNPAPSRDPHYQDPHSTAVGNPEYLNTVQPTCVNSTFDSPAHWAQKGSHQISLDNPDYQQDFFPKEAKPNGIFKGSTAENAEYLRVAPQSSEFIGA

Take `C[C@@H]1[C@H](NC(=O)c2ccc(C3CC3)cc2)CCCN1c1cnc(C(N)=O)c(Nc2ccc(N3CCN(CC(F)(F)F)CC3)cc2)n1` [Example D-97, 5-[(2R,3R)-3-(4-cyclopropylbenzamido)-2-methylpiperidin-1-yl]-3-({4-[4-(2,2,2-trifluoroethyl)piperazin-1-yl]phenyl}amino)pyrazine-2-carboxamide]: the half-maximal inhibitory concentration (IC50) (commonly the midpoint of a concentration-inhibition curve) on EGFR is > 10 µM; on BTK-WT, 0.01 to 0.1 µM; on LCK it was > 10 µM; against ITK, 1 to 10 µM.

On to `C[C@@H]1CC[C@H](NC(=O)c2ccc(C3CC3)cc2)CN1c1cnc(C(N)=O)c(Nc2ccc(N3CCN(C)CC3)c(F)c2)n1` [Example D-149, 5-[(2R,5 S)-5-(4-cyclopropylbenzamido)-2-methylpiperidin-1-yl]-3-{[3-fluoro-4-(4-methylpiperazin-1-yl)phenyl]amino}pyrazine-2-carboxamide], for which the 50% inhibitory concentration (IC50) at EGFR was > 10 µM; on BTK-WT, 0.01 to 0.1 µM; at LCK, 0.1 to 1 µM; on ITK, 0.1 to 1 µM.

For the molecule `CNC(=O)N[C@@H]1CCCN(c2cnc(C(N)=O)c(Nc3cnn(C)c3)n2)[C@@H]1C` [Example D-109, 3-[(1-methyl-1H-pyrazol-4-yl)amino]-5-[(2R,3R)-2-methyl-3-[(methylcarbamoyl)amino]piperidin-1-yl]pyrazine-2-carboxamide], the IC50 is 1 to 10 µM at EGFR, ≤ 0.01 µM on BTK-WT, 0.1 to 1 µM at LCK and 0.1 to 1 µM against ITK.

For `C[C@@H]1[C@H](NC(=O)N(C)C)CCCN1c1cnc(C(N)=O)c(Nc2ccc(C(=O)N3CCN(C)CC3)cc2)n1` [Example D-110, 5-[(2R,3R)-3-[(dimethylcarbamoyl)amino]-2-methylpiperidin-1-yl]-3-{[4-(4-methylpiperazine-1-carbonyl)phenyl]amino}pyrazine-2-carboxamide], the IC50 against EGFR is 1 to 10 µM; on BTK-WT, ≤ 0.01 µM; at LCK, 0.1 to 1 µM; on ITK it was 1 to 10 µM.

With `CN1CCN(Cc2ccc(Nc3nc(N4CCC[C@@H](n5ccc6cc(C7CC7)ccc6c5=O)C4)cnc3C(N)=O)cc2)CC1` [Example D-167, 5-[(3R)-3-(6-cyclopropyl-1-oxo-1,2-dihydroisoquinolin-2-yl)piperidin-1-yl]-3-({4-[(4-methylpiperazin-1-yl)methyl]phenyl}amino)pyrazine-2-carboxamide], the 50% inhibitory concentration (IC50) against EGFR is 1 to 10 µM; at BTK-WT, ≤ 0.01 µM; at LCK it was 0.1 to 1 µM; at ITK it was 0.1 to 1 µM.

For the molecule `C[C@@H]1[C@H](NC(=O)c2ccc(C3CC3)cc2F)CCCN1c1cnc(C(N)=O)c(Nc2ccn(C)n2)n1` [Example D-129, 5-[(2R,3R)-3-(4-cyclopropyl-2-fluorobenzamido)-2-methylpiperidin-1-yl]-3-[(1-methyl-1H-pyrazol-3-yl)amino]pyrazine-2-carboxamide], the half-maximal inhibitory concentration (IC50) against EGFR is 1 to 10 µM; at BTK-WT it was 0.1 to 1 µM; on LCK, > 10 µM; against ITK, > 10 µM.

For the molecule `Cc1ccc(-c2cnc([C@@H]3CCCN(c4cnc(C(N)=O)c(Nc5cc(C)ns5)n4)[C@@H]3C)[nH]2)cc1` [Example D-131, 3-[(3-methyl-1,2-thiazol-5-yl)amino]-5-[(2R,3R)-2-methyl-3-[5-(4-methylphenyl)-1H-imidazol-2-yl]piperidin-1-yl]pyrazine-2-carboxamide], the half-inhibitory concentration (IC50) against EGFR lay within 0.1 to 1 µM; at BTK-WT it was 0.01 to 0.1 µM; at LCK, 0.1 to 1 µM; against ITK, 1 to 10 µM.

For the molecule `COC(C)(C)c1ccc(C(=O)N[C@@H]2CCCN(c3cnc(C(N)=O)c(Nc4cnn(C)c4)n3)[C@@H]2C)cc1` [Example D-161, 5-[(2R,3R)-3-[4-(2-methoxypropan-2-yl)benzamido]-2-methylpiperidin-1-yl]-3-[(1-methyl-1H-pyrazol-4-yl)amino]pyrazine-2-carboxamide], the half-maximal inhibitory concentration (IC50) at EGFR was 1 to 10 µM; on BTK-WT, ≤ 0.01 µM; on LCK, 0.1 to 1 µM; on ITK, 0.1 to 1 µM.

Turning to `NC(=O)c1ncc(N2CCC[C@@H](n3ccc4cc(C5CC5)ccc4c3=O)C2)nc1Nc1ccc2ncccc2c1` [Example D-168, 5-[(3R)-3-(6-cyclopropyl-1-oxo-1,2-dihydroisoquinolin-2-yl)piperidin-1-yl]-3-[(quinolin-6-yl)amino]pyrazine-2-carboxamide], the half-inhibitory concentration (IC50) at EGFR is > 10 µM; at BTK-WT, 0.1 to 1 µM; at LCK, > 10 µM; against ITK, > 10 µM.

In the case of `C[C@@H]1[C@H](NC(=O)N(C)C)CCCN1c1cnc(C(N)=O)c(Nc2ccc3cccnc3c2)n1` [Example D-121, 5-[(2R,3R)-3-[(dimethylcarbamoyl)amino]-2-methylpiperidin-1-yl]-3-[(quinolin-7-yl)amino]pyrazine-2-carboxamide], the concentration for half-maximal inhibition (IC50) fell in the range of 1 to 10 µM at EGFR, 0.01 to 0.1 µM at BTK-WT, 0.1 to 1 µM on LCK and 1 to 10 µM on ITK.

Take `Cc1cc(Nc2cc(N3CCC[C@@H](NC(=O)c4ccc(C5CC5)cc4F)[C@H]3C)cnc2C(N)=O)sn1` [Example D-116, 5-[(2R,3R)-3-(4-cyclopropyl-2-fluorobenzamido)-2-methylpiperidin-1-yl]-3-[(3-methyl-1,2-thiazol-5-yl)amino]pyridine-2-carboxamide]: the IC50 against EGFR was 1 to 10 µM; on BTK-WT, ≤ 0.01 µM; at LCK, 0.01 to 0.1 µM; against ITK, 1 to 10 µM.

Take `C[C@@H]1[C@H](NC(=O)c2ccc(C3CC3)cc2F)CCCN1c1cnc(C(N)=O)c(Nc2cnn(C)c2)c1` [Example D-117, 5-[(2R,3R)-3-(4-cyclopropyl-2-fluorobenzamido)-2-methylpiperidin-1-yl]-3-[(1-methyl-1H-pyrazol-4-yl)amino]pyridine-2-carboxamide]: the concentration for half-maximal inhibition (IC50) on EGFR lay within 1 to 10 µM; on BTK-WT, 0.01 to 0.1 µM; at LCK, 0.1 to 1 µM; on ITK, 1 to 10 µM.

With `C[C@@H]1[C@H](NC(=O)Nc2cccnc2)CCCN1c1cnc(C(N)=O)c(Nc2ccc(C3(C)CCN(C4CCCC4)CC3)cc2)n1` [Example D-9, 3-{[4-(1-cyclopentyl-4-methylpiperidin-4-yl)phenyl]amino}-5-[(2R,3R)-2-methyl-3-{[(pyridin-3-yl)carbamoyl]amino}piperidin-1-yl]pyrazine-2-carboxamide], the half-inhibitory concentration (IC50) at EGFR is 0.01 to 0.1 µM; on BTK-WT it was ≤ 0.01 µM; at LCK it was < 0.01 µM; against ITK it was ≤ 0.01 µM.

Consider `Cc1nsc(Nc2nc(N3CCC[C@@H](NC(=O)N(C)C)[C@H]3C)cnc2C(N)=O)c1C` [Example D-119, 3-[(dimethyl-1,2-thiazol-5-yl)amino]-5-[(2R,3R)-3-[(dimethylcarbamoyl)amino]-2-methylpiperidin-1-yl]pyrazine-2-carboxamide], for which the concentration for half-maximal inhibition (IC50) was 0.1 to 1 µM on EGFR, 0.1 to 1 µM on BTK-WT, 1 to 10 µM at LCK and > 10 µM on ITK.

For the molecule `C[C@@H]1[C@H](NC(=O)c2ccc(C3CC3)cc2)CCCN1c1cnc(C(N)=O)c(Nc2ccc(OC3C[C@H]4CC[C@@H](C3)N4C)cc2)n1` (stereo partly drawn) [Example D-104, 5-[(2R,3R)-3-(4-cyclopropylbenzamido)-2-methylpiperidin-1-yl]-3-[(4-{[(1R,5S)-8-methyl-8-azabicyclo[3.2.1]octan-3-yl]oxy}phenyl)amino]pyrazine-2-carboxamide], the IC50 against EGFR was 0.1 to 1 µM; at BTK-WT it was ≤ 0.01 µM; on LCK, 0.01 to 0.1 µM; at ITK it was 0.01 to 0.1 µM.
